Entries after “also recorded” stand apart in the source; their conditions may differ.
Experiments:
BRD9 = target: T1, BRD9 (Homo sapiens, UniProt Q9H8M2); assay: Immunoblot of BRD9 in HEK293 BRD9-HiBiT/FF/CAS9 cells; type: cell-based; set-up: host or cells: HEK293/BRD9-HiBiT knock-in; clone and BRD9-HiBiT/CAS9/FF clone
T1 sequence (Q9H8M2 1-597): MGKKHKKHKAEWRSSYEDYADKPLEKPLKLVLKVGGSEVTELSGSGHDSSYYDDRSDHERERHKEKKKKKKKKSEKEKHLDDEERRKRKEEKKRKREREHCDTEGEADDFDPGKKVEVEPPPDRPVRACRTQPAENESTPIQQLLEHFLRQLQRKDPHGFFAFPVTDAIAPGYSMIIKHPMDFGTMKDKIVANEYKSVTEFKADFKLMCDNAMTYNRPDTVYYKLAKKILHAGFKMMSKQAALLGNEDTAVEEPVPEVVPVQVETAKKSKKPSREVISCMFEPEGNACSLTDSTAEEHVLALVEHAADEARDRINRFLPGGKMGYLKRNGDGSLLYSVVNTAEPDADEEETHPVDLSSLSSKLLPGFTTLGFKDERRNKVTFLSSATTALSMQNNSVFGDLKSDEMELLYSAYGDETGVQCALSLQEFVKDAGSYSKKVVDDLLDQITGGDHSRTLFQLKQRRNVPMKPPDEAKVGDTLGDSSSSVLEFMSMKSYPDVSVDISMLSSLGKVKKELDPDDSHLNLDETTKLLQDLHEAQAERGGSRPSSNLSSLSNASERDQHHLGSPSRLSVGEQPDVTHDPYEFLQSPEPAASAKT
Method: Whole cell lysates for immunoblotting were prepared by pelleting cells at 4 °C (300 g) for 3 min. Cell pellets were then washed 1x with PBS and resuspended in RIPA lysis buffer (VWR, cat # 97063-270) supplemented with protease (Thermo Scientific, cat # A32955) and phosphatase (Thermo Scientific, cat # A32957) inhibitor tablets. Lysates were clarified at 16,000 × g for 15 min at 4 °C prior to quantification by Lowry assay (Bio-Rad cat # 5000113 and cat # 5000114). Whole-cell lysates were loaded into 4–20% Criterion TGX Precast 18 well gels (Bio-Rad, cat # 5671094) and separated by electrophoreses at 120 V for 1 h. The gels were transferred to a nitrocellulose membrane using the Trans-Blot Turbo (Bio-Rad) for 7 min and then blocked for 1 h at room temperature in Odyssey blocking buffer (LICOR Biosciences, cat # 927-50000). Membranes were probed with the appropriate primary antibodies (diluted 1:1000) overnight at 4 °C in 20% Odyssey blocking buffer in 1x TBST. Membranes were washed three times with 1x TBST (5 min per wash), and then incubated with IRDye goat anti-mouse (LICOR, cat # 926-32210) or goat anti-rabbit (LICOR, cat # 926-32211) secondary antibody diluted 1:10,000 in 20% Odyssey blocking buffer for 1 h at room temperature. After three 5-min washes with 1x TBST, the immunoblots were visualized using the ODYSSEY Infrared Imaging System (LICOR). Alternatively, SDS-PAGE resolved proteins were transferred to a PVDF membrane using a wet blotting system (Invitrogen). Membranes were blocked in 5% Milk-PBS-Tween 20 for 1 h and incubated with primary antibody over night at 4 °C. Secondary antibodies (secondary antibody: anti-rabbit, goat pAb to Rb-IgG (Abcam, #7090); secondary antibody: anti-mouse, sheep IgG HRP-linked (GE healthcare, #NA931V)) were incubated for 1 h at room temperature (RT) before blots were developed on film using the detection kit SuperSignal West Femto Maximum Sensitivity Substrate (Thermo Fisher, #34096).

HEK293T cells = assay: Whole proteomics profile, DDa-1 vs (13), HEK293T cells; type: cell-based, human; settings: 5 µM DDa-1 vs 5 µM (13), 6 h
Method: HEK293T and TMD8 cells were cultured according to protocol and 3 million cells were plated per sample and recovered for 24 h. The following day, cells were treated with indicated compounds at corresponding concentrations for 6 h. Cells were then harvested and washed 2× with PBS before removing all liquid and snap freezing in liquid nitrogen before sample preparation for proteomics.
TMT-labeled peptides were generated with the iST-NHS kit (PreOmics) and TMT10plex (duplicates per condition) or TMT18plex (triplicates per condition) reagent (Thermo Fisher Scientific). Equal amounts of labeled peptides were pooled and separated on a high pH fractionation system with a water-acetonitrile gradient containing 10 mM ammonium formate, pH 11[88]. Alternating rows of the resulting 72 fractions were pooled into 24 samples, dried and resuspended in water containing 0.1% formic acid.
The LC-MS analysis was carried out on an EASY-nLC 1200 system coupled to an Orbitrap Fusion Lumos Tribrid mass spectrometer (Thermo Fisher Scientific). […]
LC-MS raw files were analyzed with Proteome Discoverer 2.4 (Thermo Fisher Scientific). […] TMT reporter ions of the MS3 spectra were integrated with a 20 ppm tolerance and the reporter ion intensities were used for quantification. […] Protein relative quantification was performed using an in-house developed R (v.3.6) script. […]

`COc1cc(-c2cn(C)c(=O)c3cnccc23)c(OC)cc1CN1CCC(OCCCCCC(=O)N2CCN(c3ccc4c(NCCN)nc(C5(c6ccc(Cl)cc6)CCCCC5)nc4c3)CC2)CC1` [DBr-1] was tested, and the BRD9 protein loss (BRD9; 1000 nM, 6 h, HEK293 cells) was “about 90%”, the BRD9 degradation (BRD9; 1000 nM, after 30 min) was 90% and the DC50 (BRD9; 6 h, HEK293 cells, immunoblot, read-out: DC50 BRD9 estimated from dose-response curve) was roughly 500 nM.
For `Cc1nc(Nc2ncc(C(=O)Nc3c(C)cccc3Cl)s2)cc(N2CCC(OC3CCN(CCCCCCCC(=O)N4CCN(c5ccc6c(NCCN)nc(C7(c8ccc(Cl)cc8)CCCCC7)nc6c5)CC4)CC3)CC2)n1` [DDa-1], the “kinases with significant protein level reduction (LC/MS proteomics)” value (HEK293T cells) was “CSK and LIMK2; also recorded: TEC and TNK2”.
In the case of `CC(=O)N1CCN(c2ccc3c(NCCN)nc(C4(c5ccc(Cl)cc5)CCCCC4)nc3c2)CC1` [compound 13], the “BRD9 protein reduction by individual binders” value (BRD9; 1000 nM, 6 h) is reported as “No BRD9 protein reduction”.

— article PMC10766610, “DCAF1-based PROTACs with activity against clinically validated targets overcoming intrinsic- and acquired-degrader resistance” (Nature Communications, 2024)
